Laboratory results published in patent publication US10774052B2, “Heteroaryl compounds and uses thereof” (Celgene CAR LLC, priority 2013, dated 2020).

Test system: pFGFR4 in MDA-MB-453 cells
Assay: FGFR4 signaling, pFGFR4 (MDA); Western blot (Method A), MSD (Method B), ELISA (Method C)
Type: cell-based
Details: Homo sapiens, MDA-MB-453, MDA-MB-453 cells; Method B (MSD) for signaling EC50 determination
Protocol: The MDA-MB-453 protein concentrations were determined by a BCA Assay (Pierce, Rockford, Ill.). A sample of 50-100 μg of each lysate was separated by a 4-12% gradient (SDS-PAGE (Invitrogen)), transferred to a nitrocellulose membrane (Biorad, Hercules, Calif.), and probed with specific antibodies. Phospho-protein signals were quantitated using Odyssey Infrared Imaging (Li-Cor Biosciences).
To assess phospho-FGFR signaling, the blots were probed with anti-Phospho-FGFR (Y653/Y654) and total anti-FGFR antibodies. The phospho-FGFR signal was normalized to total FGFR expression for each sample.

`C=CC(=O)NC1CCCCC1Nc1ncc2c(n1)N(C)C(=O)N(c1cc(OC)cc(OC)c1)C2` (racemic) [Compound I-18] and `C=CC(=O)NC1CCCCC1Nc1ncc2c(n1)N(C1CCCNC1)C(=O)N(c1cc(OC)cc(OC)c1)C2` (racemic) [Compound I-46] cannot be ordered by EC50: greater than 1000 nM for the first, greater than 1000 nM for the second.

First: C=CC(=O)NC1CCCCC1Nc1ncc2c(n1)N(C1CCCN(C(=O)OC(C)(C)C)C1)C(=O)N(c1cc(OC)cc(OC)c1)C2 (racemic) [Compound I-45]
Second: C=CC(=O)NC1CCCCC1Nc1ncc2c(n1)N(CC1CC1)C(=O)N(c1cc(OC)cc(OC)c1Cl)C2 (stereo not drawn) [Compound I-101]
The EC50 of the first is higher: greater than 1000 nM for the first, 101 to 500 nM for the second.

`C=CC(=O)Nc1ccccc1Nc1ncc2c(n1)N(Cc1cccc(F)c1)C(=O)N(c1c(Cl)c(OC)cc(OC)c1Cl)C2` [Compound I-12] and `C=CC(=O)Nc1ccccc1Nc1ncc2c(n1)N(Cc1nccs1)C(=O)N(c1c(Cl)c(OC)cc(OC)c1Cl)C2` [Compound I-91] cannot be ordered by EC50: less than 100 nM for the first, less than 100 nM for the second.

`C=CC(=O)Nc1ccccc1Nc1ncc2c(n1)N(C)C(=O)N(c1ccccc1)C2` [Compound I-38] and `C=CC(=O)Nc1ccccc1Nc1ncc2c(n1)N(CC)C(=O)N(CC)C2` [Compound I-120] cannot be ordered by EC50: greater than 1000 nM for the first, greater than 1000 nM for the second.

`C=CC(=O)Nc1ccccc1Oc1ncc2c(n1)N(C)C(=O)N(c1c(Cl)c(OC)cc(OC)c1Cl)C2` [Compound I-65] and `C=CC(=O)N[C@H]1CCCC[C@H]1Nc1ncc2c(n1)N(Cc1nccs1)C(=O)N(c1c(Cl)c(OC)cc(OC)c1Cl)C2` [Compound I-92] fall in the same range of EC50: 101 to 500 nM for the first, 101 to 500 nM for the second.

`C=CC(=O)Nc1cc(-c2nccs2)ccc1Nc1ncc2c(n1)N(C)C(=O)N(c1cc(OC)cc(OC)c1)C2` [Compound I-84] and `C=CC(=O)Nc1cc(CN2CCN(CC)CC2)ccc1Nc1ncc2c(n1)N(C)C(=O)N(c1cc(OC)cc(OC)c1)C2` [Compound I-122] fall in the same range of EC50: 101 to 500 nM for the first, 101 to 500 nM for the second.

`C=CC(=O)N[C@@H]1CCCC[C@@H]1Nc1ncc2c(n1)N(Cc1nccs1)C(=O)N(c1c(Cl)c(OC)cc(OC)c1Cl)C2` [Compound I-93] and `C=CC(=O)Nc1ccccc1Nc1ncc2c(n1)N(CC(=O)OC(C)(C)C)C(=O)N(c1cc(OC)cc(OC)c1)C2` [Compound I-96] cannot be ordered by EC50: greater than 1000 nM for the first, greater than 1000 nM for the second.

`C=CC(=O)Nc1ccccc1Nc1ncc2nc(-c3cc(OC)cc(OC)c3)c(=O)n(C)c2n1` [Compound I-128] showed an EC50 greater than 1000 nM.

Same assay, conditions: Homo sapiens; MDA-MB-453 cells; Method A (Western blot) for signaling EC50 determination

Molecule `C=CC(=O)Nc1ccccc1Nc1ncc2c(n1)N(C)C(=O)N(c1c(Cl)c(OC)cc(OC)c1Cl)C2` [Compound I-2] has an EC50 of less than 100 nM.

Same assay, conditions: Homo sapiens; MDA-MB-453 cells; Method B (MSD) for signaling EC50 determination

First: C=CC(=O)NC1CCCCC1Nc1ncc2c(n1)N(Cc1cccnc1)C(=O)N(c1c(Cl)c(OC)cc(OC)c1Cl)C2 (racemic) [Compound I-35]
Second: C=CC(=O)N[C@@H]1CCCC[C@@H]1Nc1ncc2c(n1)N(Cc1ccccc1)C(=O)N(c1c(Cl)c(OC)cc(OC)c1Cl)C2 [Compound I-66]
The EC50 of the first is lower: 101 to 500 nM for the first, greater than 1000 nM for the second. The first is the more potent here.

`C=CC(=O)NC1CCCCC1Nc1ncc2c(n1)N(C1CCC1)C(=O)N(c1c(Cl)c(OC)cc(OC)c1Cl)C2` (racemic) [Compound I-70] and `C=CC(=O)NC1CCCCC1Nc1ncc2c(n1)N(CC1CC1)C(=O)N(c1c(Cl)c(OC)cc(OC)c1Cl)C2` (racemic) [Compound I-129] fall in the same range of EC50: 101 to 500 nM for the first, 101 to 500 nM for the second.

`C=CC(=O)NC1CCCCC1Nc1ncc2c(n1)NC(=O)N(c1c(Cl)c(OC)cc(OC)c1Cl)C2` (racemic) [Compound I-73] and `C=CC(=O)NC1CCCC1Nc1ncc2c(n1)N(C)C(=O)N(c1c(Cl)c(OC)cc(OC)c1Cl)C2` (racemic) [Compound I-112] fall in the same range of EC50: 101 to 500 nM for the first, 101 to 500 nM for the second.

First: C=CC(=O)NC1CCCCC1Nc1ncc2c(n1)N(Cc1cccc(NS(C)(=O)=O)c1)C(=O)N(c1c(Cl)c(OC)cc(OC)c1Cl)C2 (racemic) [Compound I-89]
Second: C=CC(=O)N[C@H]1CCCC[C@H]1Nc1ncc2c(n1)N(Cc1ccccc1)C(=O)N(c1c(Cl)c(OC)cc(OC)c1Cl)C2 [Compound I-82]
The EC50 of the first is higher: 101 to 500 nM for the first, less than 100 nM for the second.

First: C=CC(=O)Nc1cc(Cl)c(Cl)cc1Nc1ncc2c(n1)N(Cc1ccccc1)C(=O)N(c1c(Cl)c(OC)cc(OC)c1Cl)C2 [Compound I-11]
Second: C=CC(=O)Nc1ccccc1Nc1ncc2c(n1)N(Cc1ccc(Cl)c(OC)c1)C(=O)N(c1c(Cl)c(OC)cc(OC)c1Cl)C2 [Compound I-24]
The EC50 of the first is higher: greater than 1000 nM for the first, less than 100 nM for the second. The second is the more potent here.

`C=CC(=O)Nc1cc(OCCOC)ccc1Nc1ncc2c(n1)N(Cc1ccccc1)C(=O)N(c1cc(OC)cc(OC)c1)C2` [Compound I-14] and `C=CC(=O)Nc1ccccc1Nc1ncc2c(n1)N(Cc1cccc(C#N)c1)C(=O)N(c1cc(OC)cc(OC)c1)C2` [Compound I-90] fall in the same range of EC50: 101 to 500 nM for the first, 101 to 500 nM for the second.

First: C=CC(=O)Nc1cc(N2CCN(CC)CC2)ccc1Nc1ncc2c(n1)N(C)C(=O)N(c1cc(OC)cc(OC)c1)C2 [Compound I-15]
Second: C=CC(=O)Nc1ccc(N2CCN(CC)CC2)cc1Nc1ncc2c(n1)N(C)C(=O)N(c1cc(OC)cc(OC)c1)C2 [Compound I-30]
The EC50 of the first is lower: less than 100 nM for the first, 101 to 500 nM for the second. The first is the more potent here.

First: C=CC(=O)Nc1cc(N2CCOCC2)ccc1Nc1ncc2c(n1)N(C)C(=O)N(c1cc(OC)cc(OC)c1)C2 [Compound I-17]
Second: C=CC(=O)Nc1cc(N2CCCCC2)ccc1Nc1ncc2c(n1)N(C)C(=O)N(c1cc(OC)cc(OC)c1)C2 [Compound I-31]
The EC50 of the first is lower: less than 100 nM for the first, 101 to 500 nM for the second. The first is the more potent here.

First: C=CC(=O)Nc1cc(N2CCN(CCOC)CC2)ccc1Nc1ncc2c(n1)N(C)C(=O)N(c1cc(OC)cc(OC)c1)C2 [Compound I-20]
Second: C=CC(=O)Nc1cc(C2CCN(CC)CC2)ccc1Nc1ncc2c(n1)N(C)C(=O)N(c1cc(OC)cc(OC)c1)C2 [Compound I-54]
The EC50 of the first is lower: less than 100 nM for the first, 101 to 500 nM for the second. The first is the more potent here.

`C=CC(=O)Nc1ccccc1Nc1ncc2c(n1)N(C1CC1)C(=O)N(c1c(Cl)c(OC)cc(OC)c1Cl)C2` [Compound I-23] and `C=CC(=O)Nc1ccccc1Nc1ncc2c(n1)N(CC1CC1)C(=O)N(c1c(Cl)c(OC)cc(OC)c1Cl)C2` [Compound I-130] cannot be ordered by EC50: less than 100 nM for the first, less than 100 nM for the second.

`C=CC(=O)Nc1ccccc1Nc1ncc2c(n1)N(Cc1cccc(OC)c1)C(=O)N(c1c(Cl)c(OC)cc(OC)c1Cl)C2` [Compound I-28] and `C=CC(=O)Nc1ccccc1Nc1ncc2c(n1)N(Cc1csc(C)n1)C(=O)N(c1c(Cl)c(OC)cc(OC)c1Cl)C2` [Compound I-134] cannot be ordered by EC50: less than 100 nM for the first, less than 100 nM for the second.

`C=CCN1C(=O)N(c2cc(OC)cc(OC)c2)Cc2cnc(Nc3ccccc3NC(=O)C=C)nc21` [Compound I-32] and `C=CCCN1C(=O)N(c2cc(OC)cc(OC)c2)Cc2cnc(Nc3ccccc3NC(=O)C=C)nc21` [Compound I-57] cannot be ordered by EC50: less than 100 nM for the first, less than 100 nM for the second.

Going from `C=CC(=O)Nc1ccccc1Nc1ncc2c(n1)N(C1CC1)C(=O)N(c1cc(OC)cc(OC)c1)C2` [Compound I-34] to `C=CC(=O)Nc1ccccc1Nc1ncc2c(n1)N(CC1CCNCC1)C(=O)N(c1cc(OC)cc(OC)c1)C2` [Compound I-40], the EC50 rises from less than 100 nM to greater than 1000 nM. The first is the more potent here.

First: C=CC(=O)Nc1ccc(C)cc1Nc1ncc2c(n1)N(C)C(=O)N(c1cc(OC)cc(OC)c1)C2 [Compound I-49]
Second: C=CC(=O)Nc1ccc(-c2nccs2)cc1Nc1ncc2c(n1)N(C)C(=O)N(c1cc(OC)cc(OC)c1)C2 [Compound I-78]
The EC50 of the first is higher: 501 to 999 nM for the first, 101 to 500 nM for the second. The second is the more potent here.

First: C=CC(=O)Nc1ccccc1Nc1ncc2c(n1)N(C)C(=O)N(C1CCCCC1)C2 [Compound I-52]
Second: C=CC(=O)Nc1ccccc1Nc1ncc2c(n1)N(C)C(=O)N(c1cc(OC)cc(OC)c1Cl)C2 [Compound I-75]
The EC50 of the first is higher: greater than 1000 nM for the first, less than 100 nM for the second.

`C=CC(=O)Nc1cc(C2=CCN(CC)CC2)ccc1Nc1ncc2c(n1)N(C)C(=O)N(c1cc(OC)cc(OC)c1)C2` [Compound I-56] and `C=CC(=O)Nc1cc(-c2cnn(C)c2)ccc1Nc1ncc2c(n1)N(C)C(=O)N(c1cc(OC)cc(OC)c1)C2` [Compound I-77] cannot be ordered by EC50: less than 100 nM for the first, less than 100 nM for the second.

First: C=CC(=O)Nc1ccccc1Nc1ncc2c(n1)N(CCC(O)CO)C(=O)N(c1cc(OC)cc(OC)c1)C2 (stereo not drawn) [Compound I-58]
Second: C=CS(=O)(=O)Nc1ccccc1Nc1ncc2c(n1)N(C)C(=O)N(c1cc(OC)cc(OC)c1)C2 [Compound I-67]
The EC50 of the first is higher: 101 to 500 nM for the first, less than 100 nM for the second. The second is the more potent here.

First: C=CC(=O)Nc1ccccc1Nc1ncc2c(n1)N(CC1CCN(C(=O)OC(C)(C)C)CC1)C(=O)N(c1cc(OC)cc(OC)c1)C2 [Compound I-60]
Second: C=CC(=O)Nc1ccccc1Nc1ncc2c(n1)N(CC1CC1)C(=O)N(c1cc(OC)cc(OC)c1F)C2 [Compound I-109]
The EC50 of the first is higher: 101 to 500 nM for the first, less than 100 nM for the second. The second is the more potent here.

`C=CC(=O)Nc1cc(N2CCN(C(=O)OC(C)(C)C)CC2)ccc1Nc1ncc2c(n1)N(C)C(=O)N(c1c(Cl)c(OC)cc(OC)c1Cl)C2` [Compound I-62] and `C=CC(=O)Nc1cc(N2CCN(C(=O)CCC(=O)O)CC2)ccc1Nc1ncc2c(n1)N(C)C(=O)N(c1c(Cl)c(OC)cc(OC)c1Cl)C2` [Compound I-123] cannot be ordered by EC50: less than 100 nM for the first, less than 100 nM for the second.

`C=CC(=O)Nc1ccc(-c2cnn(C)c2)cc1Nc1ncc2c(n1)N(C)C(=O)N(c1c(Cl)c(OC)cc(OC)c1Cl)C2` [Compound I-74] and `C=CC(=O)Nc1ccccc1Nc1ncc2c(n1)N(CC(F)F)C(=O)N(c1c(Cl)c(OC)cc(OC)c1Cl)C2` [Compound I-103] cannot be ordered by EC50: less than 100 nM for the first, less than 100 nM for the second.

`C=CC(=O)Nc1ccccc1Nc1ncc2c(n1)N(Cc1cscn1)C(=O)N(c1c(Cl)c(OC)cc(OC)c1Cl)C2` [Compound I-86] and `C=CC(=O)Nc1ccccc1Nc1ncc2c(n1)N(C)C(=O)N(c1cc(OC)cc(OC)c1F)C2` [Compound I-108] cannot be ordered by EC50: less than 100 nM for the first, less than 100 nM for the second.

Same assay, conditions: Homo sapiens; MDA-MB-453 cells; Method C (ELISA) for signaling EC50 determination

`C=CC(=O)Nc1ccccc1Nc1ncc2c(n1)N(Cc1ccccc1)C(=O)N(c1c(Cl)c(OC)cc(OC)c1Cl)C2` [Compound I-3] showed an EC50 of less than 100 nM.

Same assay, conditions: MDA-MB-453 cells; Method B (MSD) for signaling EC50 determination

`C=CC(=O)Nc1cc(C(F)(F)F)ccc1Nc1ncc2c(n1)N(Cc1ccccc1)C(=O)N(c1c(Cl)c(OC)cc(OC)c1Cl)C2` [Compound I-10] gave an EC50 greater than 1000 nM.
